Measured values taken from PubChem BioAssay AID2060492 (Molecular Pharmacology Branch, DTP, NCI, 2025).

Test system: 695427-040-R-J1-PDC complex spheroids, viability percent T/C
Test: Anticancer human tumor 695427-040-R-J1-PDC patient-derived colon adenocarcinoma cell line growth inhibition [GQUAD]
Details: for IC50: curve of first compound; for viability, T/C: stronger effect = lower value
Outline: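 Tumor cells were grown as complex spheroids with HUVEC endothelial cells and mesenchymal stem cells as stroma. G-quadruplex stabilizers were combined with targeted agents over half-log dilutions from near the clinical Cmax, or from 10 microM.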

[1] = second compound 0.0316 µM, first compound 0.0316 µM
[2] = second compound 0.0316 µM, first compound 0.1 µM
[3] = second compound 0.0316 µM, first compound 0.316 µM
[4] = second compound 0.0316 µM, first compound 1 µM
[5] = second compound 0.0316 µM, first compound 3.16 µM
[6] = second compound 0.0316 µM, first compound 10 µM
[7] = second compound 0.1 µM, first compound 0.0316 µM
[8] = second compound 0.1 µM, first compound 0.1 µM
[9] = second compound 0.1 µM, first compound 0.316 µM
[10] = second compound 0.1 µM, first compound 1 µM
[11] = second compound 0.1 µM, first compound 3.16 µM
[12] = second compound 0.1 µM, first compound 10 µM
[13] = second compound 0.316 µM, first compound 0.0316 µM
[14] = second compound 0.316 µM, first compound 0.1 µM
[15] = second compound 0.316 µM, first compound 0.316 µM
[16] = second compound 0.316 µM, first compound 1 µM
[17] = second compound 0.316 µM, first compound 3.16 µM
[18] = second compound 0.316 µM, first compound 10 µM
[19] = second compound 1 µM, first compound 0.0316 µM
[20] = second compound 1 µM, first compound 0.1 µM
[21] = second compound 1 µM, first compound 0.316 µM
[22] = second compound 1 µM, first compound 1 µM
[23] = second compound 1 µM, first compound 3.16 µM
[24] = second compound 1 µM, first compound 10 µM
[25] = second compound 3.16 µM, first compound 0.0316 µM
[26] = second compound 3.16 µM, first compound 0.1 µM
[27] = second compound 3.16 µM, first compound 0.316 µM
[28] = second compound 3.16 µM, first compound 1 µM
[29] = second compound 3.16 µM, first compound 3.16 µM
[30] = second compound 3.16 µM, first compound 10 µM
[31] = second compound 10 µM, first compound 0.0316 µM
[32] = second compound 10 µM, first compound 0.1 µM
[33] = second compound 10 µM, first compound 0.316 µM
[34] = second compound 10 µM, first compound 1 µM
[35] = second compound 10 µM, first compound 3.16 µM
[36] = second compound 10 µM, first compound 10 µM
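Note: spheroids exposed to compounds for seven days before readout.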

COc1cccc2c1C(=O)c1c(O)c3c(c(O)c1C2=O)CC(O)(C(=O)CO)CC3OC1CC(N)C(O)C(C)O1 (stereo unspecified) + CN(C)c1ccc(Nc2c3ccc(NC(=O)CCN4CCCC4)cc3nc3cc(NC(=O)CCN4CCCC4)ccc23)cc1
IC50 (second compound 0.0316 µM): 9.64 µM
IC50 (second compound 0.1 µM): > 10 µM
IC50 (second compound 0.316 µM): > 10 µM
IC50 (second compound 1 µM): 9.98 µM
IC50 (second compound 3.16 µM): 8.08 µM
IC50 (second compound 10 µM): > 10 µM
viability, T/C [1]: 97%
viability, T/C [2]: 86.8%
viability, T/C [3]: 90.3%
viability, T/C [4]: 82.3%
viability, T/C [5]: 63.1%
viability, T/C [6]: 49.7%
viability, T/C [7]: 102%
viability, T/C [8]: 92%
viability, T/C [9]: 85.9%
viability, T/C [10]: 81.3%
viability, T/C [11]: 66.6%
viability, T/C [12]: 53.2%
viability, T/C [13]: 93.2%
viability, T/C [14]: 89.4%
viability, T/C [15]: 90.2%
viability, T/C [16]: 80.5%
viability, T/C [17]: 63.8%
viability, T/C [18]: 50.1%
viability, T/C [19]: 90.6%
viability, T/C [20]: 87.2%
viability, T/C [21]: 81.5%
viability, T/C [22]: 78.3%
viability, T/C [23]: 69.3%
viability, T/C [24]: 49.4%
viability, T/C [25]: 97.1%
viability, T/C [26]: 87.2%
viability, T/C [27]: 87.6%
viability, T/C [28]: 77.9%
viability, T/C [29]: 65.5%
viability, T/C [30]: 46%
viability, T/C [31]: 89.2%
viability, T/C [32]: 84.6%
viability, T/C [33]: 81.8%
viability, T/C [34]: 76.1%
viability, T/C [35]: 68.2%
viability, T/C [36]: 52.3%

Cc1[nH]c2ccccc2c1CCNCc1ccc(/C=C/C(=O)NO)cc1 + CN(C)c1ccc(Nc2c3ccc(NC(=O)CCN4CCCC4)cc3nc3cc(NC(=O)CCN4CCCC4)ccc23)cc1
IC50 (second compound 0.0316 µM): > 0.316 µM
IC50 (second compound 0.1 µM): > 0.316 µM
IC50 (second compound 0.316 µM): > 0.316 µM
IC50 (second compound 1 µM): > 0.316 µM
IC50 (second compound 3.16 µM): > 0.316 µM
IC50 (second compound 10 µM): > 0.316 µM
viability, T/C (second compound 0.0316 µM, first compound 0.000999 µM): 105%
viability, T/C (second compound 0.0316 µM, first compound 0.00316 µM): 111%
viability, T/C (second compound 0.0316 µM, first compound 0.00999 µM): 106%
viability, T/C [1]: 101%
viability, T/C (second compound 0.0316 µM, first compound 0.0999 µM): 106%
viability, T/C [3]: 72.2%
viability, T/C (second compound 0.1 µM, first compound 0.000999 µM): 119%
viability, T/C (second compound 0.1 µM, first compound 0.00316 µM): 93.9%
viability, T/C (second compound 0.1 µM, first compound 0.00999 µM): 112%
viability, T/C [7]: 99.3%
viability, T/C (second compound 0.1 µM, first compound 0.0999 µM): 97.3%
viability, T/C [9]: 69.7%
viability, T/C (second compound 0.316 µM, first compound 0.000999 µM): 98.2%
viability, T/C (second compound 0.316 µM, first compound 0.00316 µM): 97.5%
viability, T/C (second compound 0.316 µM, first compound 0.00999 µM): 95.2%
viability, T/C [13]: 96.5%
viability, T/C (second compound 0.316 µM, first compound 0.0999 µM): 105%
viability, T/C [15]: 78.4%
viability, T/C (second compound 1 µM, first compound 0.000999 µM): 97.8%
viability, T/C (second compound 1 µM, first compound 0.00316 µM): 106%
viability, T/C (second compound 1 µM, first compound 0.00999 µM): 98.8%
viability, T/C [19]: 108%
viability, T/C (second compound 1 µM, first compound 0.0999 µM): 98%
viability, T/C [21]: 68%
viability, T/C (second compound 3.16 µM, first compound 0.000999 µM): 93.4%
viability, T/C (second compound 3.16 µM, first compound 0.00316 µM): 101%
viability, T/C (second compound 3.16 µM, first compound 0.00999 µM): 101%
viability, T/C [25]: 92.8%
viability, T/C (second compound 3.16 µM, first compound 0.0999 µM): 86.8%
viability, T/C [27]: 61.1%
viability, T/C (second compound 10 µM, first compound 0.000999 µM): 87.5%
viability, T/C (second compound 10 µM, first compound 0.00316 µM): 85.9%
viability, T/C (second compound 10 µM, first compound 0.00999 µM): 94.7%
viability, T/C [31]: 82.6%
viability, T/C (second compound 10 µM, first compound 0.0999 µM): 91.1%
viability, T/C [33]: 61.1%

Nc1ccn(C2OC(CO)C(O)C2(F)F)c(=O)n1 (stereo unspecified) + CN(C)c1ccc(Nc2c3ccc(NC(=O)CCN4CCCC4)cc3nc3cc(NC(=O)CCN4CCCC4)ccc23)cc1
IC50 (second compound 0.0316 µM): > 10 µM
IC50 (second compound 0.1 µM): > 10 µM
IC50 (second compound 0.316 µM): > 10 µM
IC50 (second compound 1 µM): > 10 µM
IC50 (second compound 3.16 µM): > 10 µM
IC50 (second compound 10 µM): > 10 µM
viability, T/C [1]: 88.9%
viability, T/C [2]: 81%
viability, T/C [3]: 74.9%
viability, T/C [4]: 74.2%
viability, T/C [5]: 72.9%
viability, T/C [6]: 62.7%
viability, T/C [7]: 97.5%
viability, T/C [8]: 82.7%
viability, T/C [9]: 78.3%
viability, T/C [10]: 74.1%
viability, T/C [11]: 69.7%
viability, T/C [12]: 55.3%
viability, T/C [13]: 94.4%
viability, T/C [14]: 83.2%
viability, T/C [15]: 72.7%
viability, T/C [16]: 69.3%
viability, T/C [17]: 68.9%
viability, T/C [18]: 59.8%
viability, T/C [19]: 87.3%
viability, T/C [20]: 78.8%
viability, T/C [21]: 75%
viability, T/C [22]: 70.4%
viability, T/C [23]: 70.5%
viability, T/C [24]: 57.5%
viability, T/C [25]: 76.8%
viability, T/C [26]: 78%
viability, T/C [27]: 71.4%
viability, T/C [28]: 65.2%
viability, T/C [29]: 65.5%
viability, T/C [30]: 54.4%
viability, T/C [31]: 83.1%
viability, T/C [32]: 66.2%
viability, T/C [33]: 66.3%
viability, T/C [34]: 63.6%
viability, T/C [35]: 57.6%
viability, T/C [36]: 48.2%
